In ChEMBL document CHEMBL6120936, “Autophagy modulation in cancer therapy: Challenges coexist with opportunities” (Eur J Med Chem, 2024):
One block for each molecule: values may come before it.

Assays:
[1] = biological target: T1, Serine/threonine-protein kinase ULK1 (Homo sapiens, UniProt O75385); assay: Agonist activity at ULK1 (unknown origin)
T1 sequence (O75385 whole entry): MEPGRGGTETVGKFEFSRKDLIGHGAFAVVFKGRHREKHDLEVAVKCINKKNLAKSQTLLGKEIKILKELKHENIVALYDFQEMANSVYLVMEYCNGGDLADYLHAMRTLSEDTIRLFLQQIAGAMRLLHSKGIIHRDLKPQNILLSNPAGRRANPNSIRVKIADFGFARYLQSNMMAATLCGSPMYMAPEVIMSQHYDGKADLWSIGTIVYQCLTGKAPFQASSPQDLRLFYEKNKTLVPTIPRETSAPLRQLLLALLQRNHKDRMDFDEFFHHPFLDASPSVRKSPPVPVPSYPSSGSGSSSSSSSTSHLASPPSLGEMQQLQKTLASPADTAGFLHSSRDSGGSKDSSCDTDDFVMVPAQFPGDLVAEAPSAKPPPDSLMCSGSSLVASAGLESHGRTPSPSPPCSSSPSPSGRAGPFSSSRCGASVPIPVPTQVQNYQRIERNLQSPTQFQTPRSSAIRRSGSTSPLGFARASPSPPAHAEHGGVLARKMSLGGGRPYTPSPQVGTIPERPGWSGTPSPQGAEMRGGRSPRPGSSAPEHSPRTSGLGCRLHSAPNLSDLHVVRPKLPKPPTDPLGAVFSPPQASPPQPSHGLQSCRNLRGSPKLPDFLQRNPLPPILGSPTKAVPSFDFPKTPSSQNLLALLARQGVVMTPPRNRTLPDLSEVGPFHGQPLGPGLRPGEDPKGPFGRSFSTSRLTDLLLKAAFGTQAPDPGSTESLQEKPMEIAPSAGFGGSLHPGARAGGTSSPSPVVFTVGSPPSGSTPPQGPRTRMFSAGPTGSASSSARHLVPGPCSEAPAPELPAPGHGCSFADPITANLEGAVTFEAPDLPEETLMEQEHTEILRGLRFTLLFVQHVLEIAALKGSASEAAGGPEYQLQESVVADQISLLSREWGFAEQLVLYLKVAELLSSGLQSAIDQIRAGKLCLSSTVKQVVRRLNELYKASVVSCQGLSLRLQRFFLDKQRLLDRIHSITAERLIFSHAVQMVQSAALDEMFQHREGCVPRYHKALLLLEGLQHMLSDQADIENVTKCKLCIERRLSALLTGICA

[2] = biological target: T2, Serine/threonine-protein kinase ULK2 (Homo sapiens, UniProt Q8IYT8); assay: Inhibition of ULK2 (unknown origin)
T2 sequence (Q8IYT8 whole entry): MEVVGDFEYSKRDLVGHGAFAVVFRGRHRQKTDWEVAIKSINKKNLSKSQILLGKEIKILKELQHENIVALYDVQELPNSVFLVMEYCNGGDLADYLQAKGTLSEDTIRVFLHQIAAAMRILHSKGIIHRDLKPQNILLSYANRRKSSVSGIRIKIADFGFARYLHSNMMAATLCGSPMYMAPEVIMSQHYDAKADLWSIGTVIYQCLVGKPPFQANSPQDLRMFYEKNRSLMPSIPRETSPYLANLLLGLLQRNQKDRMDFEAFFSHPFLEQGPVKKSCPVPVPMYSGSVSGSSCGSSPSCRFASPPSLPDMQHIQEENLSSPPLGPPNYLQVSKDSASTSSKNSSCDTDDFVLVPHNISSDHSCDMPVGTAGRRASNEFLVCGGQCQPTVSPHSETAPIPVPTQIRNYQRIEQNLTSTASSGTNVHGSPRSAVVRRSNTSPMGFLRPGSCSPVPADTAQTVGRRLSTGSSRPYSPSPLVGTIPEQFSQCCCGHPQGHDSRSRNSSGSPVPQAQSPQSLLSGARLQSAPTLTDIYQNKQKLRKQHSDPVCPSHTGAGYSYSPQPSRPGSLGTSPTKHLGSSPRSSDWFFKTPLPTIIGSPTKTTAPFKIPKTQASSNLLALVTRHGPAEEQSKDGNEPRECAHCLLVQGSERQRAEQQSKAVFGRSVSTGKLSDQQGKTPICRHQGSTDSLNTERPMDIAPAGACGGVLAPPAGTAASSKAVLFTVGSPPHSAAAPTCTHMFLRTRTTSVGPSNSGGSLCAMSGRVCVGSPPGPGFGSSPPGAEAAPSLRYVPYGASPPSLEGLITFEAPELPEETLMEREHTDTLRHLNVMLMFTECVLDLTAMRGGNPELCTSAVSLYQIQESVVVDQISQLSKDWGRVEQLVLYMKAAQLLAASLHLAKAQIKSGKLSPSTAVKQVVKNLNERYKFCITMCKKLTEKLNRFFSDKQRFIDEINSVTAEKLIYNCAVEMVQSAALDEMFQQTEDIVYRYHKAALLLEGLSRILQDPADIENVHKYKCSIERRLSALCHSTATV

[3] = Agonist activity at AMPK (unknown origin); design: species or system Homo sapiens
[4] = biological target: Mitogen-activated protein kinase 3 (Homo sapiens, UniProt P27361); assay: Inhibition of ERK1 (unknown origin)
[5] = biological target: Phosphatidylinositol 4,5-bisphosphate 3-kinase catalytic subunit gamma isoform (Homo sapiens, UniProt P48736); assay: Inhibition of PI3K p120gamma (unknown origin)
[6] = biological target: Phosphatidylinositol 4,5-bisphosphate 3-kinase catalytic subunit alpha isoform (Homo sapiens, UniProt P42336); assay: Inhibition of PI3K-p110alpha (unknown origin) extracted from baculovirus-infected Sf9 cells incubated for 1 hr by microbeta counter analysis
[7] = biological target: T3, Phosphatidylinositol 4,5-bisphosphate 3-kinase catalytic subunit delta isoform (Homo sapiens, UniProt O00329); assay: Inhibition of PI3Kdelta (unknown origin)
T3 sequence (O00329 whole entry): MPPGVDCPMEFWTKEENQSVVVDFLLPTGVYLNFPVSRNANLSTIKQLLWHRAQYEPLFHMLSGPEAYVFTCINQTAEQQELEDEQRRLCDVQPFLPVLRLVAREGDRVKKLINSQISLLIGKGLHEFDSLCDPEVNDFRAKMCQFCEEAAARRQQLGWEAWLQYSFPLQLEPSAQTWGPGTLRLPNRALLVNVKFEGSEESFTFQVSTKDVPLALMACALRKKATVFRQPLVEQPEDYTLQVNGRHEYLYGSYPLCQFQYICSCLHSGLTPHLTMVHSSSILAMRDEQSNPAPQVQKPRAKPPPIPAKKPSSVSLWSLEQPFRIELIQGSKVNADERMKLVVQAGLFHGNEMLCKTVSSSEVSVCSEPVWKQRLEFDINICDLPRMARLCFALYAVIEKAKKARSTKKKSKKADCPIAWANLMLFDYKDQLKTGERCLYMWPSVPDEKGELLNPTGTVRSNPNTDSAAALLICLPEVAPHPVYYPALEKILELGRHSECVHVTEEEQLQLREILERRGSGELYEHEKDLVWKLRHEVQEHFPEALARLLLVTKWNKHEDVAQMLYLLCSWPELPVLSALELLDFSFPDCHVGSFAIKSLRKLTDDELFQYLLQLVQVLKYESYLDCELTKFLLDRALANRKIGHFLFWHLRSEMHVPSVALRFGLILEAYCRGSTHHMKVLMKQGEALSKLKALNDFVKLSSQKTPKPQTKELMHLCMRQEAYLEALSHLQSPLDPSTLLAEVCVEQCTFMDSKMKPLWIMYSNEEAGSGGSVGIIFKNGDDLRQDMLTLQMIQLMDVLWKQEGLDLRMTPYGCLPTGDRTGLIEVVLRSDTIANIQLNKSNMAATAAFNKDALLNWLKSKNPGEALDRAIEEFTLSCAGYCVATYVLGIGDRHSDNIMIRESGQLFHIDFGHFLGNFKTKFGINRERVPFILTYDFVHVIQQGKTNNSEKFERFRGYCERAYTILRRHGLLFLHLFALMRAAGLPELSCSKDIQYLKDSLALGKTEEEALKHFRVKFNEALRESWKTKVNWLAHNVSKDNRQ

[8] = Binding affinity to AMPK (unknown origin) assessed as inhibition constant; design: species or system Homo sapiens

Chain of Phosphatidylinositol 4,5-bisphosphate 3-kinase catalytic subunit gamma isoform (P48736 whole entry, canonical isoform): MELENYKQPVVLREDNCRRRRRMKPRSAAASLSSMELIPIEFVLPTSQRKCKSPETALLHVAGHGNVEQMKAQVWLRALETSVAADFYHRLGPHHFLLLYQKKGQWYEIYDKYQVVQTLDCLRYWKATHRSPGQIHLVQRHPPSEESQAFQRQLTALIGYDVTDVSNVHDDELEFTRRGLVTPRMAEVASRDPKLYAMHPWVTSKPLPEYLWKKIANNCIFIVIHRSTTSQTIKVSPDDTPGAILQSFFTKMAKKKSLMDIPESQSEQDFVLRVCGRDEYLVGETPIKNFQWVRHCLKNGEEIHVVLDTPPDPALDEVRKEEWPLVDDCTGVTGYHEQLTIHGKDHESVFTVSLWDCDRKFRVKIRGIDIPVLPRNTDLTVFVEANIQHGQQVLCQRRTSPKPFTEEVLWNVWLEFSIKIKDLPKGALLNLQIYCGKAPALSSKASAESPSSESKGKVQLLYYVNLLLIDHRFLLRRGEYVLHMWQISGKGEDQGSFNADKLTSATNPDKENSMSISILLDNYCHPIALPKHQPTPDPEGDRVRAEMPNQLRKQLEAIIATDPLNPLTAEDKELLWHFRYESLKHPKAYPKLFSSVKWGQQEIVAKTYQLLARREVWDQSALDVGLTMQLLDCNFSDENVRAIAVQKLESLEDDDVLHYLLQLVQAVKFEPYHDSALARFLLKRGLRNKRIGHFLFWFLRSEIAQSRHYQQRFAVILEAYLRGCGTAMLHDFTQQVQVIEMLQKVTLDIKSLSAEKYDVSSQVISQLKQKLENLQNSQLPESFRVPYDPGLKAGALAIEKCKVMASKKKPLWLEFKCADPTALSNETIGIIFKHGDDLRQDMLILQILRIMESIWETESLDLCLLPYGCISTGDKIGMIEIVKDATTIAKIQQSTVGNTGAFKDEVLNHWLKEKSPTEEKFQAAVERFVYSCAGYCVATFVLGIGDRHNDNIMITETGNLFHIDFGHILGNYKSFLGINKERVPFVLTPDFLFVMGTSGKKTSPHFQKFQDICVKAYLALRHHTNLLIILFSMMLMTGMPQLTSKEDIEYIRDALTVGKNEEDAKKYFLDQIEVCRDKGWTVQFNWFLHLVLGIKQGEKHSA
Chain of Phosphatidylinositol 4,5-bisphosphate 3-kinase catalytic subunit alpha isoform (P42336 whole entry, canonical isoform): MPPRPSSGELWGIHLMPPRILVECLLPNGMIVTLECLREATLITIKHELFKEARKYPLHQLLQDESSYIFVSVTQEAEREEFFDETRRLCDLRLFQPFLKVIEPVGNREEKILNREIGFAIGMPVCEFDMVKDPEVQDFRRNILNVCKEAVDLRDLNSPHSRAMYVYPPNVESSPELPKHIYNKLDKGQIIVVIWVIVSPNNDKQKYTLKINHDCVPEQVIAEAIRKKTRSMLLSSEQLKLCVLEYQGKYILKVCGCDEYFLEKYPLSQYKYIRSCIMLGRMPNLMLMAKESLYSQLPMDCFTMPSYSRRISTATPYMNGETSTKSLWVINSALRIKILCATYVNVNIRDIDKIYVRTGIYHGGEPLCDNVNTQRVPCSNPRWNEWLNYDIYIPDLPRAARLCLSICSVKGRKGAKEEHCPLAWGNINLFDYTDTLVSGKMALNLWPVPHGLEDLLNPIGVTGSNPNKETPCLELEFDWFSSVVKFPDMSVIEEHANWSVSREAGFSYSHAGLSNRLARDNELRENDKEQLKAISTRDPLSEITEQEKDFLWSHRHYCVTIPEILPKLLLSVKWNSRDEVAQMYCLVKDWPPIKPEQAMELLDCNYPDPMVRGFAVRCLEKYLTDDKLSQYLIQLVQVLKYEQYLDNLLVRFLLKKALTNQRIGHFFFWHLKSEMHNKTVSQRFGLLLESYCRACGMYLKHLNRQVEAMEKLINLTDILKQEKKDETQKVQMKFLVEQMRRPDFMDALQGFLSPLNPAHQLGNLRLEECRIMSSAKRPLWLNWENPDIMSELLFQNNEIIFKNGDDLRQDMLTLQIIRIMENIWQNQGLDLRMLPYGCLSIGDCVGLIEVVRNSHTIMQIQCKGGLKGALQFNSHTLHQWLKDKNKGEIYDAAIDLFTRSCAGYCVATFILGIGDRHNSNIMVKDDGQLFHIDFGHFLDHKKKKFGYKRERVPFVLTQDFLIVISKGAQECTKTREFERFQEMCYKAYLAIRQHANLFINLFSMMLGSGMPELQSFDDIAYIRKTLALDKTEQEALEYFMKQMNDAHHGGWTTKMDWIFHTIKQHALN
Chain of Mitogen-activated protein kinase 3 (P27361 whole entry, canonical isoform): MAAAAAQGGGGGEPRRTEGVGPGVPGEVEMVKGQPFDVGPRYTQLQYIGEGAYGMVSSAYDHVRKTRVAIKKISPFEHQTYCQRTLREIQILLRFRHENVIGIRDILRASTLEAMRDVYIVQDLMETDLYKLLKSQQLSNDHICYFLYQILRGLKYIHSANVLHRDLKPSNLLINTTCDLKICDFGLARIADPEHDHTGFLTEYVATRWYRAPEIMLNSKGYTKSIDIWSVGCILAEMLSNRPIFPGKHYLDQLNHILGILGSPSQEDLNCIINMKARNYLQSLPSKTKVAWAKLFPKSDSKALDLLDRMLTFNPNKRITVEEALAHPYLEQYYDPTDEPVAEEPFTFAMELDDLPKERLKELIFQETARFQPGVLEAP

SMILES: O=C(Nc1ccc(F)cc1F)[C@H](NC(=S)Nc1cc(C(F)(F)F)cc(C(F)(F)F)c1)c1ccccc1
EC50 [1]: 0.0241 µM

SMILES: N#Cc1c(O)c2c(-c3ccc(-c4ccccc4O)cc3)csc2[nH]c1=O
EC50 [3]: 0.8 µM

SMILES: Cc1nc(-c2cn3c(n2)-c2ccc(-c4cnn(C(C)(C)C(N)=O)c4)cc2OCC3)n(C(C)C)n1 [TASELISIB]
IC50 [5]: 0.00091 µM

SMILES: C=CCN(/C=C1/C(=O)O[C@H](COC)[C@@]2(C)C1=C(O)C(=O)C1=C2[C@H](OC(C)=O)C[C@]2(C)C(=O)CC[C@@H]12)CC=C [SONOLISIB]
IC50 [6]: 0.0001 µM
IC50 [7]: 0.0029 µM
IC50 [5]: 0.001 µM

Further lines, results first:

IC50 [2]: 0.009 µM
SMILES: CCc1cc(N2CCN(C)CC2)ccc1Nc1ncc(C(F)(F)F)c(NCCCN2CCOCCC2=O)n1 [INLEXISERTIB]

EC50 [3]: 38 µM
SMILES: N#Cc1c(O)c2c(-c3ccccc3)csc2[nH]c1=O

IC50 [4]: 0.087 µM
SMILES: COc1ccc([C@H]2OC[C@H]3[C@@H]2CO[C@@H]3c2cc(OC)c(OC)c(OC)c2)cc1OC

IC50 [6]: 1.4 µM
SMILES: CC(C)NC[C@@H](C(=O)N1CCN(c2ncnc3c2[C@H](C)C[C@H]3O)CC1)c1ccc(Cl)cc1 [IPATASERTIB]

Ki [8]: 0.109 µM
SMILES: c1cc(-c2cnn3cc(-c4ccc(OCCN5CCCCC5)cc4)cnc23)ccn1 [DORSOMORPHIN]
